In US9617251B2, “Indanylaminopyridylcyclopropanecarboxylic acids, pharmaceutical compositions and uses thereof” (BOEHRINGER INGELHEIM INTERNATIONAL GMBH, priority 2015, dated 2017):
Converted amounts (≈) assume the structure as drawn.

What was measured:
[1] = target: T1, cytochrome P450 2C8-isoenzyme (Homo sapiens, UniProt P10632); assay: Inhibition of CYP-2C8 (deethylation of amodiaquine, human liver microsomes); assay type: in vitro ADME; details: CYP-2C8, human liver microsomes, amodiaquine 1 μM, 37° C.
T1 construct: from tissue; host or cells: human liver microsomes
T1 sequence (P10632 1-490): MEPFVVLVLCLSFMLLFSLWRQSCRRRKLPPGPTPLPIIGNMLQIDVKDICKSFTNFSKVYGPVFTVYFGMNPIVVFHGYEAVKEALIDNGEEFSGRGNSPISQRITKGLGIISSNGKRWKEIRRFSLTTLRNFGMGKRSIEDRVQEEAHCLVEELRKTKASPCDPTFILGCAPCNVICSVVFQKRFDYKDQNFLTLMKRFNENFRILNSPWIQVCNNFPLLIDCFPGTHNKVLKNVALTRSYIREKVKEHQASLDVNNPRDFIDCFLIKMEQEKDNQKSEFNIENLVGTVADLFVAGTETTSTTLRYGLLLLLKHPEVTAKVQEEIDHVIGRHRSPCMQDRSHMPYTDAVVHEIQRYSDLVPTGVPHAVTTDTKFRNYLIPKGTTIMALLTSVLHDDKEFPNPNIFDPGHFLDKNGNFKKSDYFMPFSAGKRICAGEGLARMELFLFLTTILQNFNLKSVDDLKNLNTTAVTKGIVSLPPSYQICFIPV
Experimental: The inhibition of cytochrome P450 2C8-isoenzyme catalyzed deethylation of amodiaquine by the test compound is assayed at 37° C. with human liver microsomes. All assays are carried out on a robotic system in 96 well plates. The final incubation volume contains TRIS buffer (0.1 M), MgCl2 (5 mM), human liver microsomes (0.05 mg/mL), amodiaquine (1 μM) and the test compound at five different concentrations or no compound (high control) in duplicate (e.g. highest concentration 10-50 μM with subsequent serial 1:4 dilutions). Following a short preincubation period, reactions are started with the cofactor (NADPH, 1 mM) and stopped by cooling the incubation down to 8° C. and subsequently by addition of one volume of acetonitrile. An internal standard solution—the stable isotope d5-desethylamodiaquine—is added after quenching of incubations. Peak area analyte (=metabolite formed) and internal standard is determined by LC-MS/MS. The resulting peak area ratio analyte to internal standard in these incubations is compared to a control activity containing no test compound. Within each of the assay runs, the IC50 of a positive control inhibitor (Montelukast) is determined. Experimental IC50 values are calculated by least square regression according to the following equation: % control activity=(100% control activity/(1+(I/IC50)S))−B with I=inhibitor concentration; S=slope factor; B=background activity (lower plateau of the inhibition curve)
(§1) If the inhibition of the reaction is already >50% at the lowest concentration of the test compound, the IC50 is assigned “<lowest concentration tested” (usually <0.4 μM). If the inhibition of the reaction is still <50% at the highest concentration of the test compound, the IC50 is assigned “>highest concentration tested” (usually >50 μM).

human GPR40 receptor = human GPR40 receptor (Homo sapiens, UniProt O14842); assay: IP1 accumulation measurements using the IPOne assay system (1321N1 cells stably expressing human GPR40 receptor); assay type: cell-based; details: 1321N1 cells expressing human GPR40, 1 h stimulation at 37° C.
Chain of human GPR40 receptor (O14842 whole entry): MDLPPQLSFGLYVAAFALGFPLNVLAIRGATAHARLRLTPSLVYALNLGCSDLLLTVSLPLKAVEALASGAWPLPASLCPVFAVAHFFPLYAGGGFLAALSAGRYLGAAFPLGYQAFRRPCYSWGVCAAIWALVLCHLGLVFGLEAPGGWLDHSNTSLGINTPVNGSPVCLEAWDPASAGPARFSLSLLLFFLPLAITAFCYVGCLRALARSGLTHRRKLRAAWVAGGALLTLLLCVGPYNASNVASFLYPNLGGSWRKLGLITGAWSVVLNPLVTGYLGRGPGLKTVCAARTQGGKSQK
Experimental: IP1 accumulation measurements using the IPOne assay system—1321N1 cells stably expressing human GPR40 receptor (Euroscreen, Belgium) are seeded 24 h before the assay in white 384-well plates in culture medium containing 10% FCS, 1% Na-Pyruvate and 400 μg/mL G418. IP1 is assayed according to the manufacturer's description (Cisbio Bioassays, France). In brief, the assay is started by substitution of the culture medium by stimulation buffer (Hepes 10 mM, CaCl2 1 mM, MgCl2 0.5 mM, KCl 4.2 mM, NaCl 146 mM, glucose 5.5 mM and LiCl 50 mM, pH 7.4). Cells are stimulated for 1 h at 37° C., 5% CO2 by addition of the compounds that are diluted in stimulation buffer containing LiCl. Assays are stopped by adding HTRF-conjugates (IP1-d2 and Anti-IP1 cryptate Tb) and lysis buffer, provided by the manufacturer. After an incubation time of 1 h at room temperature plates are measured using an EnVision™, Perkin Elmer. The obtained fluorescence ratios at 665/615 […] are then used to calculate the pEC50 values using Assay Explorer 3.3 Software (Accelrys, Inc.) by interpolation using an IP1 reference curve and subsequent sigmoidal curve fitting allowing for a variable hill slope.

[2] = Aqueous solubility in buffer vs acetonitrile/water (1/1), LC-UV; assay type: physicochemical; details: kinetic from dmso stock, buffer pH 2.2, 24 h shaking, 2.5% DMSO
Experimental: The aqueous solubility of the compounds of the invention is determined by comparing the amount dissolved in buffer to the amount in an acetonitrile/water (1/1) solution. Starting from a 10 mM DMSO stock solution aliquots are diluted with acetonitrile/water (1/1) or buffer, respectively. After 24 h of shaking, the solutions are filtrated and analyzed by LC-UV. The amount dissolved in buffer is compared to the amount in the acetonitrile solution.
Solubility is usually being measured from 0.001 to 0.125 mg/mL at a DMSO concentration of 2.5%. If more than 90% of the compound is dissolved in buffer, the value is marked with “>”.

[3] = target: T2, cytochrome P450 2C9-isoenzyme (Homo sapiens, UniProt P11712); assay: Inhibition of CYP-2C9 (hydroxylation of diclofenac, human liver microsomes); assay type: in vitro ADME; details: CYP-2C9, human liver microsomes, diclofenac 10 μM, 37° C.
T2 construct: from tissue; host or cells: human liver microsomes
T2 sequence (P11712 whole entry): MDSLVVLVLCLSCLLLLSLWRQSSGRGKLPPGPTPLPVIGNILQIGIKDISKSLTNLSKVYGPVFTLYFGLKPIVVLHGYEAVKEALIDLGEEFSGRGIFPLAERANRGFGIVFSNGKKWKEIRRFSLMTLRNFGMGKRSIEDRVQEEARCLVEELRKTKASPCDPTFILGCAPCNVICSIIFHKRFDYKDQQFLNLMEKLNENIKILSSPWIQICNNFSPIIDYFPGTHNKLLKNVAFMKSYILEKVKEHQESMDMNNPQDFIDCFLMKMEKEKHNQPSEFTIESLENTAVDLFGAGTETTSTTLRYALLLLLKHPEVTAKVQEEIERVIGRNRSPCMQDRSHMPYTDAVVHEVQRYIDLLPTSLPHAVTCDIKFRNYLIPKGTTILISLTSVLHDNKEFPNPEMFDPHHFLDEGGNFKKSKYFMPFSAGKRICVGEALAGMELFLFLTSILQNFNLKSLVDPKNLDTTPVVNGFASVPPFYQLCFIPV
Experimental: The inhibition of cytochrome P450 2C9-isoenzyme catalyzed hydroxylation of diclofenac by the test compound is assayed at 37° C. with human liver microsomes. All assays are carried out on a robotic system in 96 well plates. The final incubation volume contains TRIS buffer (0.1 M), MgCl2 (5 mM), human liver microsomes (0.1 mg/mL), diclofenac (10 μM) and the test compound at five different concentrations or no compound (high control) in duplicate (e.g., highest concentration 10-50 μM with subsequent serial 1:4 dilutions). Following a short preincubation period, reactions are started with the cofactor (NADPH, 1 mM) and stopped by cooling the incubation down to 8° C. and subsequently by addition of one volume of acetonitrile. An internal standard solution—the stable isotope ^13C6-hydroxydiclofenac—is added after quenching of incubations. Peak area analyte (=metabolite formed) and internal standard is determined by LC-MS/MS. The resulting peak area ratio analyte to internal standard in these incubations is compared to a control activity containing no test compound. Within each of the assay runs, the IC50 of a positive control inhibitor (sulfaphenazole) is determined. Experimental IC50 values are calculated by least square regression according to the following equation: % control activity=(100% control activity/(1+(I/IC50)S))−B with I=inhibitor concentration; S=slope factor; B=background activity (lower plateau of the inhibition curve)
as §1

Row | SMILES | IC50 [1] | EC50 (human GPR40 receptor) | solubility at 24 h [2] | IC50 [3]
1 | Cc1cc(OCC2CCOC2)cc(C)c1-c1ccc(F)c2c1CC[C@H]2Nc1ccc([C@H]2C[C@@H]2C(=O)O)cn1 (stereo partly shown) [Example 16] | 46 µM | 0.011 µM | 110 µg/mL (≈ 213 µM) | > 50 µM
2 | Cc1cccc(C)c1-c1ccc(F)c2c1CC[C@H]2Nc1ccc([C@H]2C[C@@H]2C(=O)O)cn1 [Example 17] | 34 µM | 0.013 µM | 65 µg/mL (≈ 156 µM) | 36 µM
3 | Cc1cc(-c2nnnn2CC(C)(C)O)cc(C)c1-c1ccc(F)c2c1CC[C@H]2Nc1ccc([C@H]2C[C@@H]2C(=O)O)cn1 [Example 24] | > 50 µM | 0.318 µM | 103 µg/mL (≈ 185 µM) | > 50 µM
4 | Cc1cc(-c2nnn[nH]2)cc(C)c1-c1ccc(F)c2c1CC[C@H]2Nc1ccc([C@H]2C[C@@H]2C(=O)O)cn1 [Example 25] | 4 µM | 0.177 µM | 67 µg/mL (≈ 138 µM) | > 50 µM
5 | Cc1cc(CO)cc(C)c1-c1ccc(F)c2c1CC[C@H]2Nc1ccc([C@H]2C[C@@H]2C(=O)O)cn1 [Example 28] | > 50 µM | 0.071 µM | 87 µg/mL (≈ 195 µM) | > 50 µM
6 | Cc1cc(OCC(C)(C)O)cc(C)c1-c1ccc(F)c2c1CC[C@H]2Nc1ccc([C@H]2C[C@@H]2C(=O)O)cn1 [Example 29] | > 50 µM | 0.017 µM | 111 µg/mL (≈ 220 µM) | > 50 µM
7 | Cc1cc(OCc2ccccc2)cc(C)c1-c1ccc(F)c2c1CC[C@H]2Nc1ccc([C@H]2C[C@@H]2C(=O)O)cn1 [Example 32] | 12 µM | 0.035 µM | < 1 µg/mL | 24 µM
8 | Cc1cc(OCC2(C)COC2)cc(C)c1-c1ccc(F)c2c1CC[C@H]2Nc1ccc([C@H]2C[C@@H]2C(=O)O)cn1 [Example 33] | 26 µM | 0.014 µM | 103 µg/mL (≈ 199 µM) | > 50 µM
9 | Cc1cc(OCC(=O)O)cc(C)c1-c1ccc(F)c2c1CC[C@H]2Nc1ccc([C@H]2C[C@@H]2C(=O)O)cn1 [Example 34] | > 50 µM | 4.13 µM | 73 µg/mL (≈ 149 µM) | > 50 µM
10 | Cc1cc(-c2ccc(=O)n(C)c2)cc(C)c1-c1ccc(F)c2c1CC[C@H]2Nc1ccc([C@H]2C[C@@H]2C(=O)O)cn1 [Example 37] | 17 µM | 0.011 µM | 113 µg/mL (≈ 216 µM) | > 50 µM
11 | N#Cc1cccc(C#N)c1-c1ccc(F)c2c1CC[C@H]2Nc1ccc([C@H]2C[C@@H]2C(=O)O)cn1 [Example 44] | > 50 µM | 4.13 µM | > 158 µg/mL | > 50 µM
12 | Cc1cc(-c2cc(=O)n(C)cn2)cc(C)c1-c1ccc(F)c2c1CC[C@H]2Nc1ccc([C@H]2C[C@@H]2C(=O)O)cn1 [Example 45] | 24 µM | 0.005 µM | 86 µg/mL (≈ 164 µM) | > 50 µM
13 | COc1cc(OC)c(-c2ccc(F)c3c2CC[C@H]3Nc2ccc([C@H]3C[C@@H]3C(=O)O)cn2)c(OC)c1 [Example 48] | > 50 µM | 0.427 µM | > 107 µg/mL | > 50 µM
14 | Cc1ccc(Cl)c(-c2ccc(F)c3c2CC[C@H]3Nc2ccc([C@H]3C[C@@H]3C(=O)O)cn2)c1Cl [Example 51] | 12 µM | 0.007 µM | 56 µg/mL (≈ 119 µM) | 17 µM
15 | COc1cc(OC)c(Cl)c(-c2ccc(F)c3c2CC[C@H]3Nc2ccc([C@H]3C[C@@H]3C(=O)O)cn2)c1Cl [Example 53] | 11 µM | 0.013 µM | 76 µg/mL (≈ 147 µM) | 14 µM
16 | O=C(O)[C@H]1C[C@@H]1c1ccc(N[C@@H]2CCc3c(-c4c(F)cccc4F)ccc(F)c32)nc1 [Example 55] | > 50 µM | 0.208 µM | 73 µg/mL (≈ 172 µM) | > 50 µM
17 | COc1cc(OC)c(F)c(-c2ccc(F)c3c2CC[C@H]3Nc2ccc([C@H]3C[C@@H]3C(=O)O)cn2)c1F [Example 57] | 19 µM | 0.107 µM | 99 µg/mL (≈ 204 µM) | 48 µM
18 | O=C(O)[C@H]1C[C@@H]1c1ccc(N[C@@H]2CCc3c(-c4c(F)cc(OC5CC5)cc4F)ccc(F)c32)nc1 [Example 60] | 25 µM | 0.061 µM | 68 µg/mL (≈ 142 µM) | 9 µM
19 | Cc1cc(OCC2CCOCC2)cc(C)c1-c1ccc(F)c2c1CC[C@H]2Nc1ccc([C@H]2C[C@@H]2C(=O)O)cn1 [Example 61] | 15 µM | 0.005 µM | 90 µg/mL (≈ 170 µM) | 33 µM
20 | Cc1cc(-c2ccn(C)c(=O)n2)cc(C)c1-c1ccc(F)c2c1CC[C@H]2Nc1ccc([C@H]2C[C@@H]2C(=O)O)cn1 [Example 71] | 18 µM | 0.006 µM | 121 µg/mL (≈ 231 µM) | > 50 µM
21 | Cc1cc(OCC2(O)CCSCC2)cc(C)c1-c1ccc(F)c2c1CC[C@H]2Nc1ccc([C@H]2C[C@@H]2C(=O)O)cn1 [Example 73] | 20 µM | 0.017 µM | 89 µg/mL (≈ 158 µM) | 45 µM
22 | COc1c(F)c(F)c(-c2ccc(F)c3c2CC[C@H]3Nc2ccc([C@H]3C[C@@H]3C(=O)O)cn2)c(F)c1F [Example 76] | 30 µM | 0.003 µM | 104 µg/mL (≈ 212 µM) | 40 µM
